{"source": "patent US6376495B1", "about": "“Antidiabetic piperazine derivatives, processes for their preparation and compositions containing them” (Merck Patent Gesellschaft, priority 1998, dated 2002)", "key": {"[1]": {"system": "experimental model of non-insulin-dependent diabetes induced in the rat by streptozotocin", "assay": "Study of the antidiabetic activity in the rat (glycaemia, oral route)", "type": "in vivo", "details": "diabetic rats 8 weeks old; for % of glycaemia at D1 (percentage of change in the glycaemia with respect to D0): after treatment for 1 day; for % of glycaemia at D4 (percentage of change in the glycaemia with respect to D0): after treatment for 4 days", "description": "The antidiabetic activity of the compounds of formula I by the oral route was determined on an experimental model of non-insulin-dependent diabetes induced in the rat by streptozotocin.\nThe model of non-insulin-dependent diabetes is obtained in the rat by a neonatal injection (on the day of birth) of streptozotocin.\nThe diabetic rats used are 8 weeks old. The animals are kept, from the day of their birth to the day of the experiment, in an animal house at a regulated temperature of 21 to 22° C. and are subjected to a fixed cycle of light (from 7 h to 19 h) and of darkness (from 19 h to 7 h). Their diet consisted of a maintenance diet; water and food were provided “ad libitum”, with the exception of the 2 hours of fasting preceding the tests, where food is withdrawn (post-absorptive state).\nThe rats are treated by the oral route, during the day, with the test product. Two hours after the final administration of the product and 30 minutes after anaesthetizing the animals with sodium pentobarbital (Nembutal®), a 300-μl blood sample is withdrawn at the end of the tail in order to determine the glycaemia.\nat D1 (after treatment for 1 day) with respect to D0 (before treatment); and\nat D4 (after treatment for 4 days) with respect to D0 (before treatment) for 2 different administration doses (20 mg/kg/day and 200 mg/kg/day) of active principle."}, "[2]": {"system": "experimental model of non-insulin-dependent diabetes induced in the rat by streptozotocin", "assay": "Study of the hypolipidaemic activity in the rat (total cholesterol, total triglycerides)", "type": "in vivo", "details": "oral route for 7 days, sample 18 h after final administration, diabetic rats 6 months old", "description": "The hypolipidaemic activity of the compounds of formula I by the oral route was determined on an experimental model of non-insulin-dependent diabetes induced in the rat by streptozotocin.\nThe model of non-insulin-dependent diabetes is obtained in the rats by a neonatal injection (5 days after birth) of streptozotocin.\nThe diabetic rats used are 6 months old. The animals are kept, from the day of their birth to the day of the experiment, in an animal house at a regulated temperature of 21 to 22° C. and are subjected to a fixed cycle of light (from 7 h to 19 h) and of darkness (from 19 h to 7 h).\nTheir diet consisted of a maintenance diet; water and food were provided “ab [sic] libitum”, with the exception of the 18 hours of fasting preceding the withdrawals of the blood samples on which the lipid balances will be carried out.\nThe rats are treated by the oral route with the compound of Example 1 for 7 days. A 300-μl sample is withdrawn 18 h after the final administration of this compound.\nThe total cholesterol was quantitatively determined by the CHOE/CHOD/POD Trinder method as an end point (Instrumentation Laboratory reagent [lacuna] on a Monarch plus analyser (Instrumentation Laboratory).\nThe total triglycerides were quantitatively determined by the GPO/Trinder method as an end point (Sigma Diagnostic reagent) on a Monarch analyser (Instrumentation Laboratory)."}}}
{"smiles": "COc1cccc(N2CCN(CCOc3ccc(CC(=O)O)cc3)CC2)c1", "note": "[Example 1, (4-{2-[4-(3-methoxyphenyl)-piperazin-1-yl]ethoxy}phenyl) acetic acid]", "values": [{"measurement": "melting point", "value": "158 to 160", "unit": "°C"}, {"measurement": "% of glycaemia at D1 (percentage of change in the glycaemia with respect to D0)", "setting": "[1]; 20 mg/kg/day", "value": "−8", "unit": "%"}, {"measurement": "% of glycaemia at D4 (percentage of change in the glycaemia with respect to D0)", "setting": "[1]; 20 mg/kg/day", "value": "−10", "unit": "%"}, {"measurement": "% of glycaemia at D1 (percentage of change in the glycaemia with respect to D0)", "setting": "[1]; 200 mg/kg/day", "value": "−24", "unit": "%"}, {"measurement": "% of glycaemia at D4 (percentage of change in the glycaemia with respect to D0)", "setting": "[1]; 200 mg/kg/day", "value": "−34", "unit": "%"}, {"measurement": "TOTAL CHOLESTEROL", "setting": "[2]; in the absence of treatment 90", "value": 79, "unit": "mg/dL"}, {"measurement": "TOTAL TRIGLYCERIDES", "setting": "[2]; in the absence of treatment 167", "value": 102, "unit": "mg/dL"}]}
